A word on the pIC50: it is −log10 of the IC50, conventionally taken in molar units.

Experimental findings from patent US4931462A, “Heterocyclic substituted alkylsulphonamides pharmaceutical compositions containing them, and arterial disease treatment therewith” (Boehringer Mannheim GmbH, priority 1987, dated 1990) are described below.

For assay [1], the system named is U 46619-induced pulmonary embolism. Description: Preventing the U 46619-induced pulmonary embolism (survival rate of mouse). The following applies: lethal U 46619 (800-1000 μg/kg) into tail vein after 4 hours, survivors/animals used; for Survival Rate of Mouse 25 mg/kg, 4 h: 25 mg/kg by stomach tube in 1% methylcellulose; for Survival Rate of Mouse 1 mg/kg, 4 h: 1 mg/kg by stomach tube in 1% methylcellulose. Type of assay: in vivo, mouse (male NMRI). How it is done: 2. Preventing the U 46619-Induced Pulmonary Embolism
Male NMRI mice, with a body weight of 25 g. are used. The test substance is suspended in 1% methylcellulose and administered to the experimental animals with the help of a stomach tube. The provocation test consists of injecting the lethal dose (800-1000 μg/kg) of the thromboxane mimetic (U 46619 of the Upjohn Co.) rapidly into the tail vein. The duration of the specific antagonistic effect is tested by pretreating the animals with 25 mg or 1 mg/kg of the different test substances and injecting U 46619 after 4 hours. The survival rate indicates how many of the animals used have survived the injection of the thromboxane mimetic.

Assay [2] relates to thrombocyte aggregation (TX antagonistic effect). Description: TX antagonistic effect: inhibition of U 46619-induced thrombocyte aggregation in platelet-rich plasma of healthy blood donors (Born and Cross). Type of assay: cell-based. The conditions noted are these: Erythrocyte, 5 min; U 46619-induced aggregation, human platelet-rich plasma, citrate, followed over 5 minutes; read-out: Human Erythrocytes IC50. From the text: 1. TX Antagonistic Effect of Human Erythrocytes
The thrombocyte aggregation is investigated by the method of Born and Cross (J. Physiol. 168, 178 (1963) in platelet-rich plasma of healthy blood donors. To inhibit clotting, the blood is mixed with 3.2% citrate in a ratio by volume of 1:9.
To induce thrombocyte aggregation, U 46619 (Upjohn & Co., Kalamazoo, U.S.A.), which is a stable analog of the prostaglandin endoperoxide […], is used. U 46619 was characterized as a selective thromboxane mimetic (Coleman et al., Brit. J. Pharmacol. 68, 127 P., 1980).
The aggregation test is carried out in a 4-channel aggregometer (Profiler® of the Bio/Data Co., U.S.A.). The course of the aggregation is followed over a period of 5 minutes. At the end of the test, the degree of aggregation attained is printed out. These values, which are obtained in the presence of different concentrations of the substance to be tested, are used for the determination of the EC50 for the TX antagonistic effect. The effectiveness varies inversely with the EC50 value.

pIC50: −log10 of the molar value.

As for `Cc1ccc(S(=O)(=O)NCCc2ccc3oc(C(=O)O)cc3c2)cc1` [12 b], the “Survival Rate of Mouse 25 mg/kg, 4 h” value in assay [1] is on record as 4/5. Moreover, the pIC50 in assay [2] is 5.80.
On the same counts, the results for `O=C(O)c1cc2cc(CCNS(=O)(=O)c3ccc(Br)cc3)ccc2o1` [12 e] are 5/5 and 5.57.
On the same counts, the results for `Cc1c(C(=O)O)oc2ccc(CCNS(=O)(=O)c3ccc(Cl)cc3)cc12` [12 g] are 5/5 and 5.77.
As to `O=C(O)c1cc2cc(CCNS(=O)(=O)c3ccc(Cl)cc3)ccc2[nH]1` [12 l], in assay [1], the “Survival Rate of Mouse 1 mg/kg, 4 h” value is 2/5. Also, the pIC50 in assay [2] is 5.85.
For `O=C(O)COc1ccc(CCNS(=O)(=O)c2ccccc2)cc1` [Comparison Compound, 4-[2-(benzenesulfonylamino)-ethyl]-7-phenoxyacetic acid, reference compound], the “Survival Rate of Mouse 25 mg/kg, 4 h” value in assay [1] is 2/2. Also, in assay [2], the pIC50 was 5.73.
With `O=C(O)c1cc2cc(CCNS(=O)(=O)c3ccc(Cl)cc3)ccc2o1` [Example 11, 5-[2-(4-Chlorobenzenesulphonamido)-ethyl]-benzo[b]-furan-2-carboxylic acid], in assay [1], the “Survival Rate of Mouse 1 mg/kg, 4 h” value is 4/5 and the “Survival Rate of Mouse 25 mg/kg, 4 h” value is listed as 10/10. Besides, the pIC50 in assay [2] was 6.12.
Consider `O=C(O)C1Cc2cc(CCNS(=O)(=O)c3ccccc3)ccc2O1` (stereo not drawn) [Example 13, 5-(2-Benzenesulphonamidoethyl)-2,3-dihydrobenzo[b]furan-2-carboxylic acid], for which the “Survival Rate of Mouse 25 mg/kg, 4 h” value in assay [1] is 5/5. For the same molecule, in assay [2], the pIC50 is 5.92.
